Measured values from patent US12233081B2, “Hygromycin a compounds and methods of treating spirochete diseases” (priority 2018, dated 2025).

Legend:
B. burgdorferi N40 = test: C3H mice infected with Borrelia burgdorferi, cell counts in skin tissue; format: in vivo; settings: 156 mg/kg IP injection, 5 days of dosing
Procedure: C3H mice (Charles River Laboratories) are used in classical Lyme disease infection model. Mice were rested for more than 1 day after delivery before infected with 10^5 B. burgdorferi N40 cells by subcutaneous injection. Infection was established for 3 weeks. 100 μl of saline, ceftriaxone or hygromycin A was administered by IP injection. Compounds of the invention can also be tested for efficacy as described herein.
Ceftriaxone (USP grade) was purchased from Sigma-Aldrich. Saline was purchased from Baxter Healthcare. Ceftriaxone powder was dissolved into saline to 31.2 mg/ml solution. Hygromycin A stock solution at 200 mg/ml was diluted into saline to make 50 mg/ml (250 mg/kg), 15 mg/ml (75 mg/kg), 14 mg/ml (70 mg/kg), 10 mg/ml (50 mg/kg) and 5 mg/ml (25 mg/kg) solutions.
In the B. burgdorferi mice infection model, skin is the tissue with highest bacterial burden. After sacrificing mice 2 days after 5 days of dosing, we took 100 mg skin tissue from mouse ear, homogenized the tissue and plated on BSK-II semi-agar plates for cell number counts. No colony appearing on the plates is considered as clearance of the infection.

gut microbiome = gut microbiome 16S rRNA sequencing of stool of infected, treated mice; settings: subcutaneous 156 mg/kg every 12 hours for 5 days

In the case of `CO/N=C(\C(=O)N[C@@H]1C(=O)N2C(C(=O)O)=C(CSc3nc(=O)c(=O)[nH]n3C)CS[C@H]12)c1csc(N)n1` [Ceftriaxone], the “# of B. burgdorferi cells in 100 mg skin tissue” value (B. burgdorferi N40) is reported as <1, the “Acholeplasmataceae change in percent relative abundance” value (gut microbiome) is reported as 0.213% and the “Aerococcaceae change in percent relative abundance” value (gut microbiome) is reported as 0.000%. The “Anaerolineaceae change in percent relative abundance” value (gut microbiome) was 0.000%, the “Anaeroplasmataceae change in percent relative abundance” value (gut microbiome) was 0.000% and the “Anaplasmataceae change in percent relative abundance” value (gut microbiome) was 0.001%. The “Aspergillaceae change in percent relative abundance” value (gut microbiome) was 0.000%, the “Asteraceae change in percent relative abundance” value (gut microbiome) was 0.011% and the “Bacillaceae change in percent relative abundance” value (gut microbiome) was 0.055%. For the same compound, the “Bacillales change in percent relative abundance” value (gut microbiome) was −0.174%, the “Bacteroidaceae change in percent relative abundance” value (gut microbiome) was −26.593% and the “Bifidobacteriaceae change in percent relative abundance” value (gut microbiome) was 0.000%. For the same compound, the “Brucellaceae change in percent relative abundance” value (gut microbiome) was 0.000%, the “Camobacteriaceae change in percent relative abundance” value (gut microbiome) was 0.000% and the “Chitinophagaceae change in percent relative abundance” value (gut microbiome) was 0.000%. The “Christensenellaceae change in percent relative abundance” value (gut microbiome) was 0.000%, the “Clostridiaceae change in percent relative abundance” value (gut microbiome) was −10.423% and the “Clostridiales change in percent relative abundance” value (gut microbiome) was −0.174%. For the same compound, the “Clostridiales family xi. incertae sedis change in percent relative abundance” value (gut microbiome) was −0.050%, the “Clostridiales family xiii. incertae sedis change in percent relative abundance” value (gut microbiome) was −0.015% and the “Coriobacteriaceae change in percent relative abundance” value (gut microbiome) was −0.049%. The “Corynebacteriaceae change in percent relative abundance” value (gut microbiome) was 0.002%, the “Cytophagaceae change in percent relative abundance” value (gut microbiome) was 0.000% and the “Deferribacteraceae change in percent relative abundance” value (gut microbiome) was −1.344%. For the same compound, the “Defluviitaleaceae change in percent relative abundance” value (gut microbiome) was −0.002%, the “Desulfobacteraceae change in percent relative abundance” value (gut microbiome) was 0.000% and the “Enterobacteriaceae change in percent relative abundance” value (gut microbiome) was −0.487%. The “Enterococcaceae change in percent relative abundance” value (gut microbiome) was 77.7%, the “Erysipelotrichaceae change in percent relative abundance” value (gut microbiome) was −1.012% and the “Eubacteriaceae change in percent relative abundance” value (gut microbiome) was −3.445%. The “Fabaceae change in percent relative abundance” value (gut microbiome) was 0.003%, the “Flavobacteriaceae change in percent relative abundance” value (gut microbiome) was 0.000% and the “Francisellaceae change in percent relative abundance” value (gut microbiome) was 0.000%. For the same compound, the “Fusobacteriaceae change in percent relative abundance” value (gut microbiome) was 0.001%, the “Gammaproteobacteria change in percent relative abundance” value (gut microbiome) was −0.008% and the “Gloeobacteraceae change in percent relative abundance” value (gut microbiome) was −0.018%. The “Gracilibacteraceae change in percent relative abundance” value (gut microbiome) was −0.087%, the “Halomonadaceae change in percent relative abundance” value (gut microbiome) was 0.000% and the “Hylidae change in percent relative abundance” value (gut microbiome) was 0.001%. For the same compound, the “Kopriimonadaceae change in percent relative abundance” value (gut microbiome) was 0.000%, the “Lachnospiraceae change in percent relative abundance” value (gut microbiome) was −11.193% and the “Lactobacillaceae change in percent relative abundance” value (gut microbiome) was −1.712%. For the same compound, the “Leuconostocaceae change in percent relative abundance” value (gut microbiome) was 0.015%, the “Methylobacteriaceae change in percent relative abundance” value (gut microbiome) was 0.001% and the “Microbacteriaceae change in percent relative abundance” value (gut microbiome) was 0.001%. For the same compound, the “Mucoraceae change in percent relative abundance” value (gut microbiome) was 0.000%, the “Nostocaceae change in percent relative abundance” value (gut microbiome) was 0.002% and the “Onagraceae change in percent relative abundance” value (gut microbiome) was 0.000%. For the same compound, the “Oscillatoriales change in percent relative abundance” value (gut microbiome) was 0.090%, the “Oscillospiraceae change in percent relative abundance” value (gut microbiome) was −0.009% and the “Paenibacillaceae change in percent relative abundance” value (gut microbiome) was 0.003%. The “Pasteurellaceae change in percent relative abundance” value (gut microbiome) was 0.001%, the “Pelobacteraceae change in percent relative abundance” value (gut microbiome) was 0.000% and the “Peptococcaceae change in percent relative abundance” value (gut microbiome) was −0.602%. The “Peptoniphilaceae change in percent relative abundance” value (gut microbiome) was 0.001%, the “Peptostreptococcaceae change in percent relative abundance” value (gut microbiome) was −0.185% and the “Physalacriaceae change in percent relative abundance” value (gut microbiome) was 0.000%. For the same compound, the “Poaceae change in percent relative abundance” value (gut microbiome) was 0.820%, the “Polyangiaceae change in percent relative abundance” value (gut microbiome) was 0.001% and the “Porphyromonadaceae change in percent relative abundance” value (gut microbiome) was −24.493%. For the same compound, the “Prevotellaceae change in percent relative abundance” value (gut microbiome) was −0.417%, the “Pseudomonadaceae change in percent relative abundance” value (gut microbiome) was 0.002% and the “Rhizobiaceae change in percent relative abundance” value (gut microbiome) was 0.001%. For the same compound, the “Rhodobacteraceae change in percent relative abundance” value (gut microbiome) was 0.000%, the “Rikenellaceae change in percent relative abundance” value (gut microbiome) was −6.750% and the “Ruminococcaceae change in percent relative abundance” value (gut microbiome) was −2.217%. The “Sphingomonadaceae change in percent relative abundance” value (gut microbiome) was 0.000%, the “Spirochaetaceae change in percent relative abundance” value (gut microbiome) was −0.055% and the “Spiroplasmataceae change in percent relative abundance” value (gut microbiome) was −0.051%. For the same compound, the “Staphylococcaceae change in percent relative abundance” value (gut microbiome) was 0.047%, the “Streptococcaceae change in percent relative abundance” value (gut microbiome) was 12.672% and the “Thermoanaerobacteraceae change in percent relative abundance” value (gut microbiome) was −0.033%. For the same compound, the “Veillonellaceae change in percent relative abundance” value (gut microbiome) was 0.000%, the “Verrucomicrobiaceae change in percent relative abundance” value (gut microbiome) was −0.004% and the “Xanthomonadaceae change in percent relative abundance” value (gut microbiome) was 0.001%. For the same compound, the “all other commensal taxa such as Bacteroidaceae and Lactobacillaceae” value (gut microbiome) was “depleted”, the “mice with Enterococcaceae blooms” value (gut microbiome) was 5/5 and the “Enterococcaceae change in percent relative abundance” value (gut microbiome; listed as Cef) was 77.719%.
